Test [1] deals with Neurospora crassa. As to the kind of experiment: Comparative plate diffusion test with other conventional antifungal substances (Example 5 (1)). Type of test: cell-based. As to the method: (§1) Respectively, 10 μg of the corresponding antibiotics is pipetted in the form of a methanolic solution on the filter plates and, after drying, placed on a nutrient substrate inoculated with Neurospora crassa spores.

The subject of test [2] is Neurospora crassa. As to the kind of experiment: Comparative plate diffusion test with membrane-modifying peptide antibiotics (Example 5 (2)). In kind it is cell-based. Particulars: 10 μg/plate; in words. As for the experimental part: as §1
(2) In the same manner, various membrane-modifying peptide antibiotics are comparison-tested with herbicolin A:
Trichotoxin A 40, Suzukazillin, Alamethicin F 50, and herbicolin A, respectively, 10 μg/plate.

Where a SMILES comes first, the peptide text is derived from it. [ ]: non-standard residue; d: D form. Phe(ol) = N[C@H](CO)Cc1ccccc1; Aib = CC(C)(N)C(=O)O

As for `COC1=CC(=O)C[C@@H](C)[C@]12Oc1c(Cl)c(OC)cc(OC)c1C2=O` [griseofulvin], the inhibition zone entry in the test on Neurospora crassa [1] (10 μg on filter plate, 18 hours, 27° C.) is given as “no inhibition zone”. Consider `C[C@@H]1[C@H](O)[C@@H](C)/C=C/C=C/C=C/C=C/C=C/C=C/C=C/[C@H](O[C@@H]2O[C@H](C)[C@@H](O)[C@H](N)[C@@H]2O)C[C@@H]2O[C@](O)(C[C@@H](O)C[C@@H](O)[C@H](O)CC[C@@H](O)C[C@@H](O)CC(=O)O[C@H]1C)C[C@H](O)[C@H]2C(=O)O` [amphotericin], for which, in the test on Neurospora crassa [1] (Neurospora crassa, 18 h, read-out: inhibition zone), the zone of inhibition at 10 µg/disc is about 10 mm. As to `CC(=O)NC(C)(C)C(=O)N1CCC[C@H]1C(=O)NC(C)(C)C(=O)N[C@@H](C)C(=O)NC(C)(C)C(=O)N[C@@H](C)C(=O)N[C@@H](CCC(N)=O)C(=O)NC(C)(C)C(=O)N[C@H](C(=O)NC(C)(C)C(=O)NCC(=O)N[C@@H](CC(C)C)C(=O)NC(C)(C)C(=O)N1CCC[C@H]1C(=O)N[C@H](C(=O)NC(C)(C)C(=O)NC(C)(C)C(=O)N[C@@H](CCC(=O)O)C(=O)N[C@@H](CCC(N)=O)C(=O)N[C@H](CO)Cc1ccccc1)C(C)C)C(C)C` [Alamethicin] (Ac-[Aib]P[Aib]A[Aib]AQ[Aib]V[Aib]GL[Aib]PV[Aib][Aib]EQ[Phe(ol)]), the inhibition zone entry with Neurospora crassa [2] is “only a weak inhibition zone”.

(Values after US4338302A, “Herbicolin and microbiological method for the preparation thereof” (priority 1979, dated 1982).)
